Measurements as given in PMC4699463 (2015).

Key:
Assay in all cases: F-neo fluorescence displacement
[1] = system: hsa-miR 142 (RNA, miRNA) CAUAAAGUAGAAAGCACUACUUU/AGUAGUGCUUUCUACUUUAUGUU; details: 25 mM KCl; 10 mM sodium phosphate, 0.05 mM EDTA, pH 6.5; tracer 100 nM F-neo, 100 nM miRNA; per site
[2] = system: hsa-miR 335 (RNA, miRNA) UCAAGAGCAAUAACGAAAAAUGUUU/ACAUUUUUCGUUAUUGCUCUUGAUU; details: 25 mM KCl; 10 mM sodium phosphate, 0.05 mM EDTA, pH 6.5; tracer 100 nM F-neo, 100 nM miRNA; per site
[3] = system: hsa-miR 504 (RNA, miRNA) AGACCCUGGUCUGCACUCUAUCUU/GAUAGAGUGCAGACCAGGGUCUUU; details: 25 mM KCl; 10 mM sodium phosphate, 0.05 mM EDTA, pH 6.5; tracer 100 nM F-neo, 50 nM miRNA; per site
[4] = system: pre-hsa-miR 504 (RNA, miRNA) GCUGCUGUUGGGAGACCCUGGUCUGCACUCUAUCUGUAUUCUUACUGAAGGGAGUGCAGGGCAGGGUUUCCCAUACAGAGGGC; details: 25 mM KCl; 10 mM sodium phosphate, 0.05 mM EDTA, pH 6.5; tracer 100 nM F-neo, 16.7 nM pre-miRNA; per site

IC50 [1]: 95.7 ± 5.6 nM
IC50 [2]: 117.4 ± 8.1 nM
IC50 [3]: 70.3 ± 1.6 nM
IC50 [4]: 56.2 ± 2.3 nM
SMILES: NC[C@@H]1O[C@H](O[C@H]2[C@@H](O)[C@H](O[C@@H]3[C@@H](O)[C@H](N)C[C@H](N)[C@H]3O[C@H]3O[C@H](CN)[C@@H](O)[C@H](O)[C@H]3N)O[C@@H]2CO)[C@H](N)[C@@H](O)[C@@H]1O
